According to patent US9670227B2, “Thienopyrimidine derivatives, a process for their preparation and pharmaceutical compositions containing them” (LES LABORATOIRES SERVIER, priority 2013, dated 2017):

Tests used:
Mcl-1 protein = Mcl-1 protein (UniProtKB primary accession number: Q07820) (Homo sapiens, UniProt Q07820); experiment: Inhibition of Mcl-1 by fluorescence polarisation, Method 1; format: binding; conditions: fluorescence polarisation; Method 1, or Method 2; read-out: IC50 (M) Mcl-1 FP
Summary of the method: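 Fluorescence polarisation competition with an 11-point compound dilution series (final DMSO 5%). Mcl-1 protein at 5 nM and fluorescein-labelled ligand at 1 nM (final) in 10 mM HEPES, 150 mM NaCl, 0.05% Tween 20, pH 7.4.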

[1] = test system: H929 multiple myeloma tumour line; experiment: In vitro cytotoxicity, Microculture Tetrazolium Assay; format: cell-based; conditions: Homo sapiens, NCI-H929, 48 h, H929 cells, 48 hours exposure, MTT; read-out: IC50 (μM) MTT H929
Method: The cytotoxicity studies were carried out on the H929 multiple myeloma tumour line.
The cells are distributed onto microplates and exposed to the test compounds for 48 hours.

Mcl-1 protein, sequence (Q07820 whole entry): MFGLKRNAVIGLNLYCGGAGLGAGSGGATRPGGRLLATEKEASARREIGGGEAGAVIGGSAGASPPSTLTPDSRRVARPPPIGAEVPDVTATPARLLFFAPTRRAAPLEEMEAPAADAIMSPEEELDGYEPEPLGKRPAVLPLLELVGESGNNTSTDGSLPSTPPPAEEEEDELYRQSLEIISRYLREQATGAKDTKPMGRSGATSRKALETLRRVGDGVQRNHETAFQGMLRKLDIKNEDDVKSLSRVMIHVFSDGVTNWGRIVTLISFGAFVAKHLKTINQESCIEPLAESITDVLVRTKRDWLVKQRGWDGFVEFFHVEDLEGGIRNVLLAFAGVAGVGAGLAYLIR

Structure (SMILES) | IC50 (Mcl-1 protein) | IC50 [1]
COc1ccccc1CC(Oc1ncnc2sc(-c3cccc(C#N)c3)c(-c3ccc(OCCN4CCN(C)CC4)c(Cl)c3C)c12)C(=O)O [Example 548, (2R)-2-{[(5Sa)-5-{3-chloro-2-methyl-4-[2-(4-methylpiperazin-1-yl)ethoxy]phenyl}-6-(3-cyanophenyl)thieno[2,3-d]pyrimidin-4-yl]oxy}-3-(2-methoxyphenyl)propanoic acid] | 1.8e-08 M | 0.497 µM
COc1ccccc1CC(Oc1ncnc2sc(-c3cccc(C(F)(F)F)c3)c(-c3ccc(OCCN4CCN(C)CC4)c(Cl)c3C)c12)C(=O)O [Example 549, (2R)-2-[((5Sa)-5-{3-chloro-2-methyl-4-[2-(4-methylpiperazin-1-yl)ethoxy]phenyl}-6-[3-(trifluoromethyl)phenyl]thieno[2,3-d]pyrimidin-4-yl)oxy]-3-(2-methoxyphenyl)propanoic acid] | 1.3e-07 M | 1.5 µM
COc1ccccc1CC(Oc1ncnc2sc(-c3cccc(N(C)C)c3)c(-c3ccc(OCCN4CCN(C)CC4)c(Cl)c3C)c12)C(=O)O [Example 552, (2R)-2-[((5Sa)-5-{3-chloro-2-methyl-4-[2-(4-methylpiperazin-1-yl)ethoxy]phenyl}-6-[3-(dimethylamino)phenyl]thieno[2,3-d]pyrimidin-4-yl)oxy]-3-(2-methoxyphenyl)propanoic acid] | 4.1e-08 M | 0.784 µM
COc1ccccc1CC(Oc1ncnc2sc(-c3cccc(O)c3)c(-c3ccc(OCCN4CCN(C)CC4)c(Cl)c3C)c12)C(=O)O [Example 553, (2R)-2-{[(5Sa)-5-{3-chloro-2-methyl-4-[2-(4-methylpiperazin-1-yl)ethoxy]phenyl}-6-(3-hydroxyphenyl)thieno[2,3-d]pyrimidin-4-yl]oxy}-3-(2-methoxyphenyl)propanoic acid] | 1.1e-08 M | 0.585 µM
COc1cccc(-c2sc3ncnc(OC(Cc4ccccc4OC)C(=O)O)c3c2-c2ccc(OCCN3CCN(C)CC3)c(Cl)c2C)c1 [Example 554, (2R)-2-{[(5Sa)-5-{3-chloro-2-methyl-4-[2-(4-methylpiperazin-1-yl)ethoxy]phenyl}-6-(3-methoxyphenyl)thieno[2,3-d]pyrimidin-4-yl]oxy}-3-(2-methoxyphenyl)propanoic acid] | 2.4e-08 M | 0.177 µM
CCOc1cccc(-c2sc3ncnc(OC(Cc4ccccc4OC)C(=O)O)c3c2-c2ccc(OCCN3CCN(C)CC3)c(Cl)c2C)c1 [Example 557, (2R)-2-{[(5Sa)-5-{3-chloro-2-methyl-4-[2-(4-methylpiperazin-1-yl)ethoxy]phenyl}-6-(3-ethoxyphenyl)thieno[2,3-d]pyrimidin-4-yl]oxy}-3-(2-methoxyphenyl)propanoic acid] | 4.5e-09 M | 0.475 µM
COc1ccccc1CC(Oc1ncnc2sc(-c3cccc(SC)c3)c(-c3ccc(OCCN4CCN(C)CC4)c(Cl)c3C)c12)C(=O)O [Example 558, (2R)-2-[((5Sa)-5-{3-chloro-2-methyl-4-[2-(4-methylpiperazin-1-yl)ethoxy]phenyl}-6-[3-(methylsulfanyl)phenyl]thieno[2,3-d]pyrimidin-4-yl)oxy]-3-(2-methoxyphenyl)propanoic acid] | 5.9e-08 M | 0.742 µM
COc1ccccc1CC(Oc1ncnc2sc(-c3cccc(Cl)c3F)c(-c3ccc(OCCN4CCN(C)CC4)c(Cl)c3C)c12)C(=O)O [Example 559, (2R)-2-{[6-(3-chloro-2-fluorophenyl)-(5Sa)-5-{3-chloro-2-methyl-4-[2-(4-methylpiperazin-1-yl)ethoxy]phenyl}thieno[2,3-d]pyrimidin-4-yl]oxy}-3-(2-methoxyphenyl)propanoic acid] | 5.2e-09 M | 0.293 µM
COc1ccccc1CC(Oc1ncnc2sc(-c3cccc(F)c3F)c(-c3ccc(OCCN4CCN(C)CC4)c(Cl)c3C)c12)C(=O)O [Example 560, (2R)-2-{[(5Sa)-5-{3-chloro-2-methyl-4-[2-(4-methylpiperazin-1-yl)ethoxy]phenyl}-6-(2,3-difluorophenyl)thieno[2,3-d]pyrimidin-4-yl]oxy}-3-(2-methoxyphenyl)propanoic acid] | 1.1e-08 M | 0.128 µM
COc1ccccc1CC(Oc1ncnc2sc(-c3cccc(OC)c3F)c(-c3ccc(OCCN4CCN(C)CC4)c(Cl)c3C)c12)C(=O)O [Example 561, (2R)-2-{[(5Sa)-5-{3-chloro-2-methyl-4-[2-(4-methylpiperazin-1-yl)ethoxy]phenyl}-6-(2-fluoro-3-methoxyphenyl)thieno[2,3-d]pyrimidin-4-yl]oxy}-3-(2-methoxyphenyl)propanoic acid] | 2.7e-08 M | 0.61 µM
COc1ccccc1CC(Oc1ncnc2sc(-c3cccc4occc34)c(-c3ccc(OCCN4CCN(C)CC4)c(Cl)c3C)c12)C(=O)O [Example 563, (2R)-2-{[6-(1-benzofuran-4-yl)-(5Sa)-5-{3-chloro-2-methyl-4-[2-(4-methylpiperazin-1-yl)ethoxy]phenyl}thieno[2,3-d]pyrimidin-4-yl]oxy}-3-(2-methoxyphenyl)propanoic acid] | 7.4e-08 M | 1.16 µM
COc1ccccc1CC(Oc1ncnc2sc(-c3ccccc3)c(-c3ccc(OCCN4CCN(C)CC4)c(Cl)c3C)c12)C(=O)O [Example 564, (2R)-2-[((5Sa)-5-{3-chloro-2-methyl-4-[2-(4-methylpiperazin-1-yl)ethoxy]phenyl}-6-phenylthieno[2,3-d]pyrimidin-4-yl)oxy]-3-(2-methoxyphenyl)propanoic acid] | 8.5e-10 M | 0.202 µM
COc1ccccc1CC(Oc1ncnc2sc(-c3ccccc3Cl)c(-c3ccc(OCCN4CCN(C)CC4)c(Cl)c3C)c12)C(=O)O [Example 565, (2R)-2-{[(5Sa)-5-{3-chloro-2-methyl-4-[2-(4-methylpiperazin-1-yl)ethoxy]phenyl}-6-(2-chlorophenyl)thieno[2,3-d]pyrimidin-4-yl]oxy}-3-(2-methoxyphenyl)propanoic acid] | 4.8e-07 M | 1.96 µM
COc1ccccc1CC(Oc1ncnc2sc(-c3ccsc3)c(-c3ccc(OCCN4CCN(C)CC4)c(Cl)c3C)c12)C(=O)O [Example 568, (2R)-2-{[(5Sa)-5-{3-chloro-2-methyl-4-[2-(4-methylpiperazin-1-yl)ethoxy]phenyl}-6-(thiophen-3-yl)thieno[2,3-d]pyrimidin-4-yl]oxy}-3-(2-methoxyphenyl)propanoic acid] | 2.5e-08 M | 0.22 µM
COc1ccccc1CC(Oc1ncnc2sc(-c3cnco3)c(-c3ccc(OCCN4CCN(C)CC4)c(Cl)c3C)c12)C(=O)O [Example 569, (2R)-2-{[(5Sa)-5-{3-chloro-2-methyl-4-[2-(4-methylpiperazin-1-yl)ethoxy]phenyl}-6-(1,3-oxazol-5-yl)thieno[2,3-d]pyrimidin-4-yl]oxy}-3-(2-methoxyphenyl)propanoic acid] | 3.9e-08 M | 1.73 µM
COc1ccccc1CC(Oc1ncnc2sc(-c3csc(Cl)c3)c(-c3ccc(OCCN4CCN(C)CC4)c(Cl)c3C)c12)C(=O)O [Example 570, (2R)-2-{[(5Sa)-5-{3-chloro-2-methyl-4-[2-(4-methylpiperazin-1-yl)ethoxy]phenyl}-6-(5-chlorothiophen-3-yl)thieno[2,3-d]pyrimidin-4-yl]oxy}-3-(2-methoxyphenyl)propanoic acid] | 2e-08 M | 0.324 µM
COc1ccccc1CC(Oc1ncnc2sc(-c3csc4ccsc34)c(-c3ccc(OCCN4CCN(C)CC4)c(Cl)c3C)c12)C(=O)O [Example 571, (2R)-2-{[(5Sa)-5-{3-chloro-2-methyl-4-[2-(4-methylpiperazin-1-yl)ethoxy]phenyl}-6-(thieno[3,2-b]thiophen-3-yl)thieno[2,3-d]pyrimidin-4-yl]oxy}-3-(2-methoxyphenyl)propanoic acid] | 4.4e-08 M | 0.559 µM
CCC#Cc1sc2ncnc(OC(Cc3ccccc3OC)C(=O)O)c2c1-c1ccc(OCCN2CCN(C)CC2)c(Cl)c1C [Example 573, (2R)-2-{[6-(but-1-yn-1-yl)-(5Sa)-5-{3-chloro-2-methyl-4-[2-(4-methylpiperazin-1-yl)ethoxy]phenyl}thieno[2,3-d]pyrimidin-4-yl]oxy}-3-(2-methoxyphenyl)propanoic acid] | 1.1e-08 M | 0.366 µM
COc1ccccc1CC(Oc1ncnc2sc(C(C)(F)F)c(-c3ccc(OCCN4CCN(C)CC4)c(Cl)c3C)c12)C(=O)O [Example 576, (2R)-2-{[(5Sa)-5-{3-chloro-2-methyl-4-[2-(4-methylpiperazin-1-yl)ethoxy]phenyl}-6-(1,1-difluoroethyl)thieno[2,3-d]pyrimidin-4-yl]oxy}-3-(2-methoxyphenyl)propanoic acid] | 6.2e-08 M | 1.51 µM
C#Cc1ccc(-c2sc3ncnc(OC(Cc4ccccc4OC)C(=O)O)c3c2-c2ccc(OCCN3CCN(C)CC3)c(Cl)c2C)o1 [Example 578, (2R)-2-{[(5Sa)-5-{3-chloro-2-methyl-4-[2-(4-methylpiperazin-1-yl)ethoxy]phenyl}-6-(5-ethynylfuran-2-yl)thieno[2,3-d]pyrimidin-4-yl]oxy}-3-(2-methoxyphenyl)propanoic acid] | 3.8e-08 M | 0.347 µM
COc1ccccc1CC(Oc1ncnc2sc(-c3ccc(C#N)o3)c(-c3ccc(OCCN4CCN(C)CC4)c(Cl)c3C)c12)C(=O)O [Example 579, (2R)-2-{[(5Sa)-5-{3-chloro-2-methyl-4-[2-(4-methylpiperazin-1-yl)ethoxy]phenyl}-6-(5-cyanofuran-2-yl)thieno[2,3-d]pyrimidin-4-yl]oxy}-3-(2-methoxyphenyl)propanoic acid] | 8.5e-09 M | 0.463 µM
